# Assay results published in the supplement of paper PMC10307832.
# Legend:
# Assay in all cases: relative viability (nuclei count vs DMSO), 5 days (fraction); higher = more cells survive
# AZ3146 + Alpelisib = compound: CN1CCC(CC1)OC2=CC(=C(C=C2)NC3=NC=C4C(=N3)N(C(=O)N4C)C5CCCC5)OC [AZ3146] + Cc1nc(NC(=O)N2CCC[C@H]2C(N)=O)sc1-c1ccnc(C(C)(C)C(F)(F)F)c1 [Alpelisib] (partner 2 µM)
# How it was run: (§1)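 After 5 days of treatment, lung cancer cells in 1536-well plates were fixed and stained in a single step (final 0.05% Triton X-100, 1% formaldehyde, 1 ug/ml Hoechst) and their nuclei counted on 4× images. Treatment had been applied by pin tool the day after seeding as one drug alone or as a fixed anchor-drug dose with five library-drug doses (not always all listed) in √10 steps. Relative viability is the nuclei count of treated wells divided by that of vehicle wells, and values are medians of duplicate plates.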
# GSK-J4 + Palbociclib = compound: CCOC(=O)CCNc1cc(N2CCc3ccccc3CC2)nc(-c2ccccn2)n1 [GSK-J4] + CC(=O)c1c(C)c2cnc(Nc3ccc(N4CCNCC4)cn3)nc2n(C2CCCC2)c1=O [Palbociclib] (partner 0.5 µM)
# How it was run: as §1
# AZ3146 + Decitabine = compound: CN1CCC(CC1)OC2=CC(=C(C=C2)NC3=NC=C4C(=N3)N(C(=O)N4C)C5CCCC5)OC [AZ3146] + Nc1ncn([C@H]2C[C@H](O)[C@@H](CO)O2)c(=O)n1 [Decitabine] (partner 2 µM)
# How it was run: as §1
# GSK-J4 + Pemetrexed = compound: CCOC(=O)CCNc1cc(N2CCc3ccccc3CC2)nc(-c2ccccn2)n1 [GSK-J4] + Nc1nc2[nH]cc(CCc3ccc(C(=O)N[C@@H](CCC(=O)O)C(=O)O)cc3)c2c(=O)[nH]1 [Pemetrexed] (partner 0.2 µM)
# How it was run: as §1
Cell Line,relative viability (AZ3146 + Alpelisib; first compound 0.08 µM),relative viability (AZ3146 + Alpelisib; first compound 2.53 µM),relative viability (AZ3146 + Alpelisib; first compound 8 µM),relative viability (GSK-J4 + Palbociclib; first compound 0.5 µM),relative viability (GSK-J4 + Palbociclib; first compound 1.581 µM),relative viability (GSK-J4 + Palbociclib; first compound 5 µM),relative viability (GSK-J4 + Palbociclib; first compound 15.81 µM),relative viability (GSK-J4 + Palbociclib; first compound 50 µM),relative viability (AZ3146 + Decitabine; first compound 0.253 µM),relative viability (AZ3146 + Decitabine; first compound 0.8 µM),relative viability (AZ3146 + Decitabine; first compound 2.53 µM),relative viability (AZ3146 + Decitabine; first compound 8 µM),relative viability (GSK-J4 + Pemetrexed; first compound 0.5 µM),relative viability (GSK-J4 + Pemetrexed; first compound 1.581 µM),relative viability (GSK-J4 + Pemetrexed; first compound 5 µM),relative viability (GSK-J4 + Pemetrexed; first compound 15.81 µM),relative viability (GSK-J4 + Pemetrexed; first compound 50 µM),relative viability (AZ3146 + Alpelisib; first compound 0.253 µM),relative viability (AZ3146 + Alpelisib; first compound 0.8 µM),relative viability (AZ3146 + Decitabine; first compound 0.08 µM)
LK-2,0.907,1.16,1.66,0.765,0.652,0.85,0.683,0.506,0.372,0.284,0.319,0.337,0.281,0.239,0.329,0.226,0.172,,,
HCC-44,0.676,0.807,0.859,0.933,0.916,0.989,0.979,1.03,0.889,1.03,0.943,0.958,0.601,0.503,0.638,0.668,0.625,0.805,0.797,0.912
NCI-H2405,0.891,0.829,0.76,0.525,0.458,,0.522,0.508,0.738,0.789,0.788,0.697,1.01,1,,1,1.02,,0.789,0.733
NCI-H1395,1.08,0.994,1.26,0.546,0.518,0.576,0.556,0.61,0.746,,0.864,0.849,0.894,0.73,0.707,0.764,0.707,1.18,0.998,0.642
201T,0.943,0.993,1,0.359,0.358,0.361,0.326,0.352,0.858,0.885,0.865,0.847,0.353,0.301,0.312,0.33,0.364,0.918,0.954,0.856
NCI-H358,0.897,0.889,0.78,0.139,,0.154,0.104,0.138,0.225,0.182,0.207,0.159,0.237,,0.171,0.171,0.188,0.741,0.783,0.201
NCI-H838,0.95,0.985,0.858,0.222,0.204,0.158,0.194,0.226,0.474,0.422,0.501,0.281,0.242,0.219,0.218,0.248,0.199,1.06,0.883,0.46
HCC-366,0.357,0.433,0.393,0.357,0.322,,0.357,0.354,0.39,0.296,0.352,0.321,0.148,0.145,,0.229,0.169,0.379,0.419,0.342
NCI-H1651,0.879,1.1,0.958,0.502,0.47,0.504,0.504,0.509,0.634,0.549,0.543,0.617,0.587,0.597,0.595,0.518,0.56,1.02,0.936,0.532
LOU-NH91,0.662,0.711,0.672,0.51,0.468,0.493,0.507,0.46,0.77,0.886,0.829,0.783,0.39,0.381,0.36,0.346,0.441,0.663,0.681,0.816
NCI-H520,0.689,0.834,1.04,0.231,0.113,0.223,0.167,0.163,0.607,0.536,0.511,0.359,0.632,0.5,0.655,0.57,0.547,0.943,0.791,0.468
H3255,0.749,0.754,0.656,0.325,0.299,0.257,0.279,0.284,0.805,0.562,0.678,0.604,0.649,0.551,0.491,0.503,0.502,0.649,0.664,0.604
